Values joined by “and” are separate entries in the source; they are usually repeats but may differ in a detail not shown here. Identical values can stand only once.
Columns and labels:
[1] = Recovery from human plasma/PBS 1:2 v/v; assay type: in vitro ADME; design: recovery compd. (%): dose or concentration left out as unconfirmed; conditions: for recovery compd. (%): human plasma/PBS 1:2 v/v
Method: The proteolytic stabilities of 13 and 18 were investigated in human blood plasma/PBS (136.9 mM NaCl, 2.68 mM KCl, 5.62 mM Na2HPO4, 1.09 mM NaH2PO4, and 1.47 mM KH2PO4, pH 7.4) 1:2 v/v according to a described procedure[38] with the following modifications: 5 mM stock solutions in EtOH/10 mM aqueous HCl 1:1 v/v were used for the addition of the peptides to plasma/PBS 1:2 v/v. As the RP-HPLC purity of 1-methyl-D-Trp, used as internal standard (IS), was <95%, the compound was purified by preparative HPLC to give a purity of >99%. […] Samples were analyzed using the same RP-HPLC system and conditions as described under Analytical HPLC with the following gradient: 0–6 min: acetonitrile/0.04% aqueous TFA 10:90–21:79, 6–12 min: 21:79–40:60, 12–13 min: 40:60–95:5, 13–16 min: 95:5 (isocratic). Data analysis was based on UV detection at 220 nm. Reference samples, representing 100% recovery, were prepared in quadruplicate. Recovery ratios were obtained by dividing the recovery of the peptide by the recovery of IS for each individual sample (n = 4). The obtained recoveries and the recovery ratios are summarized in Table S2, Supporting Information.

NTS1R [2] = target: T1, NTS1R (Homo sapiens, UniProt P30989); experiment: Fluorescence anisotropy (FA) equilibrium saturation binding at hNTS1R-displaying BBVs; design: NlucC (C-terminal fragment of nanoluciferase, 11 amino acids) (C); made in house; host or cells: Sf9 insect cells, baculovirus (pIMACE-CMVintP10-hNTS1R-Nluc, DH10MultiBac); budded baculovirus particles; conditions: NTS1R-BBV, 27 °C
T1 sequence (P30989 whole entry, the tested form may be a part): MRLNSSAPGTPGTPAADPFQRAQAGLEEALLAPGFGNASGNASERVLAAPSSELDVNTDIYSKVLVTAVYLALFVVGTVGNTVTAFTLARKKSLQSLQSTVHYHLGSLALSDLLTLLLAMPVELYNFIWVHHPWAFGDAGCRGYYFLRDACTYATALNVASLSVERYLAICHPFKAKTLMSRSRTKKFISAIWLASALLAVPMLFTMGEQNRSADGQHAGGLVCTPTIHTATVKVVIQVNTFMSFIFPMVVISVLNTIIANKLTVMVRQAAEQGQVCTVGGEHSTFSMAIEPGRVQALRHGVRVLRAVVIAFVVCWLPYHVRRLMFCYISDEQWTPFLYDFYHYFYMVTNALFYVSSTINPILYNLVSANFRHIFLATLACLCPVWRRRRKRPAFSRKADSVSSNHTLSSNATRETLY
Method: FA-based NTS1R binding studies with 13 and 18 were performed at hNTS1R displaying budded baculovirus particles (termed BBVs below), which were obtained from Sf9 insect cells following the procedure reported for the preparation of neuropeptide Y Y1R displaying BBVs.[61] The obtained viruses were collected by centrifugation at 1600g for 10 min, and the virus titer was determined with an image-based cell-size estimation assay as described elsewhere.[62] The viruses were amplified using a multiplicity of infection (MOI) between 0.01 and 0.1 until a high-titer baculovirus stock (virus concentration of at least 1.0 × 10^8 infectious viral particles/mL) was acquired. To produce BBV preparations with a high receptor density, Sf9 cells with a density of 1.9 × 10^6 cells/mL were infected with an MOI of 3 and the BBVs were collected by centrifugation 63 h after the infection, when the cell viability was <30%. […]
(§1) FA measurements were performed with a Synergy NEO multimode plate reader (BioTek, Winooski, VT) and black, half area, flat bottom polystyrene nonbinding surface (NBS) 96-well plates (product no. 3993; Corning, Corning, NY). Polarizing excitation (530 ± 15 nm) and dual emission (590 ± 17.5 nm) filters with a dichroic mirror were used, allowing the simultaneous detection of parallelly and perpendicularly polarized fluorescence emission after polarizing beam splitter. […]

NTS1R [3] = target: T1, NTS1R; experiment: Fluorescence anisotropy (FA) association and dissociation kinetics at hNTS1R-displaying BBVs; assay type: binding; design: NlucC (C-terminal fragment of nanoluciferase, 11 amino acids) (C); made in house; host or cells: Sf9 insect cells, baculovirus (pIMACE-CMVintP10-hNTS1R-Nluc, DH10MultiBac); budded baculovirus particles; conditions: NTS1R-BBV, 27 °C; for kon: from model fit, read-out: kon [min^–1 nM^–1] (converted); for koff: read-out: koff [min^–1] (converted)
Method: FA-based NTS1R binding studies with 13 and 18 were performed at hNTS1R displaying budded baculovirus particles (termed BBVs below), which were obtained from Sf9 insect cells following the procedure reported for the preparation of neuropeptide Y Y1R displaying BBVs.[61] The obtained viruses were collected by centrifugation at 1600g for 10 min, and the virus titer was determined with an image-based cell-size estimation assay as described elsewhere.[62] The viruses were amplified using a multiplicity of infection (MOI) between 0.01 and 0.1 until a high-titer baculovirus stock (virus concentration of at least 1.0 × 10^8 infectious viral particles/mL) was acquired. To produce BBV preparations with a high receptor density, Sf9 cells with a density of 1.9 × 10^6 cells/mL were infected with an MOI of 3 and the BBVs were collected by centrifugation 63 h after the infection, when the cell viability was <30%. The BBVs were concentrated 40-fold by centrifugation at 48,000g at 4 °C for 40 min, washed with ice-cold DPBS (without supplements), resuspended, and homogenized using a 0.3 mm diameter needle (Sterican, B. Braun, Melsungen, Germany). Aliquots of the BBV preparations were stored at −90 °C until use.
as §1, with “splitter. All measurements were performed at 27 °C. For all experiments, DPBS2 was used as binding buffer.” for “splitter.”
25 μL of a 4-fold concentrated (compared to the final concentration) solution of 13 or 18 (final concentrations were 0.3 and 1 nM for both ligands) and 25 μL of DPBS2 were premixed in the 96-well plate followed by the addition of 50 μL of BBV suspension (used in six different concentrations; each was combined with the two ligand concentrations) to start the association. […] This enabled shorter time intervals between the read cycles (the measuring time for one cycle, comprising 4 wells, was 6 s; 100 read cycles were carried out). […] Immediately after the addition of SR142948, FA signals were measured for 10 min (within this time period, the dissociation was complete and a plateau was reached, respectively). Equilibrium binding was analyzed using the FA signals at 10 min. Fluorescence intensities were processed as previously reported[61] using the in-house developed software Aparecium 2.0.20 (http://www.gpcr.ut.ee/software.html).[63] […]

SMILES | recovery compd. (%) ([1]; individual experiments) | Kd (NTS1R [2]) [nM] | kon (NTS1R [3]) [M⁻¹ s⁻¹] | koff (NTS1R [3]) [s⁻¹] | mean recovery ratio ± SEM ([1]; four independent experiments) | ratio of peptide recovery over recovery of internal standard ([1]; individual experiments, internal standard 1-methyl-D-tryptophan)
CCC(=O)NCCCCNC(=O)N=C(N)NCCC[C@H](NC(=O)[C@@H]1CCCN1C(=O)[C@@H](NC(=O)CCc1cn(CCCNC(=O)c2ccc(-c3c4ccc(=[N+](C)C)cc-4oc4cc(N(C)C)ccc34)c(C(=O)[O-])c2)nn1)C1CCNCC1)C(=O)N[C@@H](CCCNC(=N)N)C(=O)N1CCC[C@H]1C(=O)N[C@@H](Cc1ccc(O)cc1)C(=O)N[C@H](C(=O)N[C@@H](CC(C)C)C(=O)O)[C@@H](C)CC [Compound 13, N^α-(3-(1-N-((1-Carboxylato-2-(6-(dimethylamino)-3-(dimethyliminio)-3H-xanthen-9-yl)phen-5-yl)1-oxomethyl)aminoprop-3-yl-1H-1,2,3-triazol-4-yl)propanoyl)-2-(piperidin-4-yl)-Gly-Pro-N^ω-[(4-(N-propanoyl)aminobutyl)aminocarbonyl]Arg-Arg-Pro-Tyr-Ile-Leu Tris(hydrotrifluoroacetate)] | 75% and 102% and 104% | 1.3 ± 0.1 | 1.67e+07 | 0.0102 |  | 
CCC(=O)NCCCCNC(=O)NC(=N)NCCC[C@H](NC(=O)[C@@H]1CCCN1C(=O)[C@@H](NC(=O)CCc1cn(CCCNC(=O)CCC#Cc2ccc3c(c2)C(C)(C)C2=C4C=C5C6=[N+](CCC5OC4CCN23)c2ccc(S(=O)(=O)[O-])cc2C6(C)C)nn1)C1CCNCC1)C(=O)N[C@@H](CCCNC(=N)N)C(=O)N1CCC[C@H]1C(=O)N[C@H](C(=O)N[C@H](C(=O)N[C@@H](CC(C)C)C(=O)O)[C@@H](C)CC)C(C)(C)c1ccc(O)cc1 (stereo partly drawn) [Compound 18, N^α-(3-(N-(1-(8-Sulfonato-5,5,27,27-tetramethyl-16-oxa-20-aza-12-azoniaheptacyclo[15.11.0.03,15.04,12.06,11.020,28.021,26]octacosa-1(28),2,4(12),6(11),7,9,21(26),22,24-nonaen-24-yl)-5-oxopentyn-5-yl)-1-aminoprop-3-yl-1H-1,2,3-triazol-4-yl)propanoyl)-2-(piperidin-4-yl)-Gly-Pro-N^ω-[(4-(N-propanoyl)aminobutyl)aminocarbonyl]Arg-Arg-Pro-β,β-dimethyl-L-Tyr-Ile-Leu Tris(hydrotrifluoroacetate)] | 98% and 72% and 65% and 70% | 1.5 ± 0.1 | 2.33e+07 | 0.00933 | 0.99 ± 0.02 | 1.01 (2×) and 1.03 and 0.91
